Test results: ChEMBL document CHEMBL1145229, “Identified a morpholinyl-4-piperidinylacetic acid derivative as a potent oral active VLA-4 antagonist” (Bioorg Med Chem Lett, 2005)

Legend:
in vivo [1] = settings: Sprague-Dawley, rat, po, 1.2 mg/kg
Description: Percent bioavailability in sprague-dawley rat at a dosage(inta venous 1.2 mg/kg, oral 5 mg/kg )

in vivo [2] = settings: rat
Description: Half life in lambda1 phase in rat

in vivo [3] = settings: Sprague-Dawley, rat, iv, 1.2 mg/kg
Description: Clearance in sprague dawley rat at 1.2 mg/kg intra venous dosage

in vivo [4] = settings: rat; remark: listed apart in the source
Description: Half life in lambda2 phase in rat

| bioavailability (in vivo [1]) [%] | half-life (in vivo [2]) [min] | clearance (in vivo [3]) [mL/min/kg] | half-life (in vivo [4]) [min] | Structure (SMILES) |
| --- | --- | --- | --- | --- |
| < 1 | 2.8 | 75.1 | 9.1 | Cc1ccccc1NC(=O)Nc1ccc(CC(=O)N2CCCC2C(=O)NCCCCC(=O)O)cc1 (stereo not drawn) |
| < 1 | 5.8 | 41.3 | 20.2 | Cc1ccccc1NC(=O)Nc1ccc(CC(=O)N2CCCC2C(=O)N2CCC(CC(=O)O)CC2)cc1 (stereo not drawn) |
